Consider 17 compounds from US9795140B2, “Molecules having pesticidal utility, and intermediates, compositions, and processes, related thereto” (priority 2015, dated 2017).

Each structure is given as a SMILES string.

Type in all cases: in vivo
The subject of data set [1] is Beet Armyworm (Spodoptera exigua, LAPHEG). The experiment in a line: Bioassay on Beet Armyworm (BAW), 128-well diet tray assay. The following applies: 168 h, 50 μg/cm^2 on artificial diet, second instar larvae, 25° C., five to seven days, average of eight wells, read-out: BAW % Control (or Mortality) rating. Here is the method: (§1) Certain molecules disclosed in this document were tested against BAW and CL using procedures described in the following examples. In the reporting of the results, the “BAW & CL Rating Table” was used (See Table Section).
Bioassays on BAW were conducted using a 128-well diet tray assay. One to five second instar BAW larvae were placed in each well (3 mL) of the diet tray that had been previously filled with approximately 1.5 mL of artificial diet to which 50 μg/cm^2 of the test molecule (dissolved in 50 μL of 90:10 acetone-water mixture) had been applied (to each of eight wells) and then allowed to dry. Trays were covered with a clear self-adhesive cover, vented to allow gas exchange, and held at 25° C., 14:10 light-dark for five to seven days. Percent mortality was recorded for the larvae in each well; activity in the eight wells was then averaged. The results are indicated in the table entitled “Table ABC: Biological Results” (See Table Section).

For data set [2], the system named is Cabbage Looper (Trichoplusia ni, TRIPNI). The experiment in a line: Bioassay on Cabbage Looper (CL), 128-well diet tray assay. The following applies: 168 h, 50 μg/cm^2 on artificial diet, second instar larvae, 25° C., five to seven days, average of eight wells, read-out: CL % Control (or Mortality) rating. Here is the method:
as §1
Bioassays on CL were conducted using a 128-well diet tray assay, one to five second instar CL larvae were placed in each well (3 mL) of the diet tray that had been previously filled with 1 mL of artificial diet to which 50 μg/cm^2 of the test molecule (dissolved in 50 μL of 90:10 acetone-water mixture) had been applied (to each of eight wells) and then allowed to dry. Trays were covered with a clear self-adhesive cover, vented to allow gas exchange, and held at 25° C., 14:10 light-dark for five to seven days. Percent mortality was recorded for the larvae in each well; activity in the eight wells was then averaged. The results are indicated in the table entitled “Table ABC: Biological Results” (See Table Section).

The test system of data set [3] is Yellow Fever Mosquito (Aedes aegypti, AEDSAE). The experiment in a line: Bioassay on Yellow Fever Mosquito (YFM) larvae, 96-well plate. The following applies: about 1 day-old larvae, room temperature, 3 days, scored on mortality. The protocol:
Certain molecules disclosed in this document were tested against YFM using procedures described in the following paragraph. In the reporting of the results, the “GPA & YFM Rating Table” was used (See Table Section).
Master plates containing 400 μg of a molecule dissolved in 100 μL of dimethyl sulfoxide (DMSO) (equivalent to a 4000 ppm solution) are used. A master plate of assembled molecules contains 15 μL per well. To this plate, 135 μL of a 90:10 water/acetone mixture is added to each well. A robot is programmed to dispense 15 μL aspirations from the master plate into an empty 96-well shallow plate (“daughter” plate). There are 6 reps (“daughter” plates) created per master. The created “daughter” plates are then immediately infested with YFM larvae.
The day before plates are to be treated, mosquito eggs are placed in Millipore water containing liver powder to begin hatching (4 g. into 400 mL). After the “daughter” plates are created using the robot, they are infested with 220 μL of the liver powder/larval mosquito mixture (about 1 day-old larvae). After plates are infested with mosquito larvae, a non-evaporative lid is used to cover the plate to reduce drying. Plates are held at room temperature for 3 days prior to grading. After 3 days, each well is observed and scored based on mortality. The results are indicated in the table entitled “Table ABC: Biological Results” (See Table Section).

The term mortality denotes the share of the test organisms that died. With `O=C(NCC(F)(F)F)c1cc(NC(=O)[C@H]2[C@H](c3cc(F)cc(C(F)F)c3)C2(Cl)Cl)ccc1Cl` (relative stereo) [F130, 2-Chloro-5-(trans-2,2-dichloro-3-(3-(difluoromethyl)-5-fluorophenyl)cyclopropane-1-carboxamido)-N-(2,2,2-trifluoroethyl)benzamide], the mortality at 50 µg/cm2 in data set [1] and in data set [2] was 50 to 100% in each case. In addition, in data set [3], the “YFM % Control (or Mortality) rating” value is “A (80-100)”.
Take `O=C(NCCC1CC1)c1cc(NC(=O)C2C(c3ccc(Cl)c(Cl)c3)C2(Cl)Cl)ccc1Cl` (stereo not drawn) [F25, trans-N-2-Chloro-N-(2-cyclopropylethyl)-5-(2,2-dichloro-3-(3,4-dichlorophenyl)cyclopropane-1-carboxamido)benzamide]: the mortality at 50 µg/cm2 in data set [1] and in data set [2] was 50 to 100% in each case. For the same compound, the “YFM % Control (or Mortality) rating” value in data set [3] is “A (80-100)”.
On to `CCCN(C)C(=O)c1cc(NC(=O)[C@H]2[C@H](c3cc(Cl)cc(Cl)c3)C2(Cl)Cl)ccc1Cl` (relative stereo) [F62, trans-2-Chloro-5-(2,2-dichloro-3-(3,5-dichlorophenyl)cyclopropane-1-carboxamido)-N-methyl-N-propylbenzamide], for which the mortality at 50 µg/cm2 in data set [1] and in data set [2] was 50 to 100% each time. In data set [3], the “YFM % Control (or Mortality) rating” value is given as “D (No activity noticed in this bioassay)”.
As for `O=C(NCC(F)(F)F)c1cc(NC(=O)[C@H]2[C@H](c3cc(Cl)cc(Cl)c3)C2(Cl)Cl)cc(Cl)c1Cl` (relative stereo) [F93, trans-2,3-Dichloro-5-(2,2-dichloro-3-(3,5-dichlorophenyl)cyclopropane-1-carboxamido)-N-(2,2,2-trifluoroethyl)benzamide], the mortality at 50 µg/cm2 in data set [1] and in data set [2] was 50 to 100% in each case.
As for `O=C(NCCSCc1ccco1)c1cc(NC(=O)[C@H]2[C@H](c3cc(Cl)cc(Cl)c3)C2(Cl)Cl)ccc1Cl` (relative stereo) [PF9, trans-2-Chloro-5-(2,2-dichloro-3-(3,5-dichlorophenyl)cyclopropane-1-carboxamido)-N-(2-((furan-2-ylmethyl)thio)ethyl)benzamide], the mortality at 50 µg/cm2 in data set [1] and in data set [2] was 50 to 100% in each case. The “YFM % Control (or Mortality) rating” value in data set [3] is on record as “A (80-100)”.
Regarding `O=C(NCC(F)(F)F)c1cc(NC(=O)[C@H]2[C@H](c3ccc(C(F)(F)F)c(Br)c3)C2(Cl)Cl)ccc1Cl` (relative stereo) [F114, 5-(trans-3-(3-Bromo-4-(trifluoromethyl)phenyl)-2,2-dichlorocyclopropane-1-carboxamido)-2-chloro-N-(2,2,2-trifluoroethyl)benzamide], the mortality at 50 µg/cm2 in data set [1] and in data set [2] was 50 to 100% in each case. The “YFM % Control (or Mortality) rating” value in data set [3] was “A (80-100)”.
With `CCNC(=O)c1cc(NC(=O)[C@H]2[C@H](c3cc(Cl)cc(Cl)c3)C2(Cl)Cl)c(Cl)cc1Cl` (relative stereo) [F98, trans-2,4-Dichloro-5-(2,2-dichloro-3-(3,5-dichlorophenyl)cyclopropane-1-carboxamido)-N-ethylbenzamide], the mortality at 50 µg/cm2 is 0 to 50% in data set [1] and 0% in data set [2]. The “YFM % Control (or Mortality) rating” value in data set [3] is given as “A (80-100)”.
`CN(C)CCCCNC(=O)c1cc(NC(=O)[C@H]2[C@H](c3cc(Cl)cc(Cl)c3)C2(Cl)Cl)ccc1Cl` (relative stereo) [F50, trans-2-Chloro-5-(2,2-dichloro-3-(3,5-dichlorophenyl)cyclopropane-1-carboxamido)-N-(4-(dimethylamino)butyl)benzamide]: the mortality at 50 µg/cm2 in data set [1] was 0%; in data set [2], 50 to 100%.
For `CN(CC#N)C(=O)c1cc(NC(=O)[C@H]2[C@H](c3cc(Cl)cc(Cl)c3)C2(Cl)Cl)ccc1Cl` (relative stereo) [F66, trans-2-Chloro-N-(cyanomethyl)-5-(2,2-dichloro-3-(3,5-dichlorophenyl)cyclopropane-1-carboxamido)-N-methylbenzamide], in that order: 50 to 100% and 50 to 100%.
For `C#CCN(C)C(=O)c1cc(NC(=O)[C@H]2[C@H](c3cc(Cl)cc(Cl)c3)C2(Cl)Cl)ccc1Cl` (relative stereo) [F65, trans-2-Chloro-5-(2,2-dichloro-3-(3,5-dichlorophenyl)cyclopropane-1-carboxamido)-N-methyl-N-(prop-2-yn-1-yl)benzamide], in that order: 50 to 100% and 50 to 100%.
For `O=C(NCC(F)(F)F)c1cc(NC(=O)C2C(c3cc(F)c(F)c(F)c3)C2(Cl)Cl)ccc1Cl` (stereo not drawn) [F127, 2-Chloro-5-cis-(2,2-dichloro-3-(3,4,5-trifluorophenyl)cyclopropane-1-carboxamido)-N-(2,2,2-trifluoroethyl)benzamide], the “YFM % Control (or Mortality) rating” value in data set [3] is “A (80-100)”.
As to `O=C(CNC(=O)c1cc(NC(=O)[C@H]2[C@H](c3cc(Cl)cc(Cl)c3)C2(Cl)Cl)ccc1Cl)NCC(F)(F)F` (relative stereo) [F5, trans-2-Chloro-5-(2,2-dichloro-3-(3,5-dichlorophenyl)cyclopropane-1-carboxamido)-N-(2-oxo-2-((2,2,2-trifluoroethyl)amino)ethyl)benzamide], the mortality at 50 µg/cm2 in data set [1] and in data set [2] was 50 to 100% throughout.
Consider `C=CCONC(=O)c1cc(NC(=O)[C@H]2[C@H](c3cc(Cl)cc(Cl)c3)C2(Cl)Cl)ccc1Cl` (relative stereo) [F10, trans-N-(Allyloxy)-2-chloro-5-(2,2-dichloro-3-(3,5-dichlorophenyl)cyclopropane-1-carboxamido)benzamide], for which the mortality at 50 µg/cm2 in data set [1] and in data set [2] was 50 to 100% each time.
For `O=C(NCc1ccccn1)c1cc(NC(=O)[C@H]2[C@H](c3cc(Cl)cc(Cl)c3)C2(Cl)Cl)ccc1Cl` (relative stereo) [F8, trans-2-Chloro-5-(2,2-dichloro-3-(3,5-dichlorophenyl)cyclopropane-1-carboxamido)-N-(pyridin-2-ylmethyl)benzamide], the mortality at 50 µg/cm2 in data set [1] and in data set [2] was 50 to 100% in each case.
For the compound `C=CCONC(=O)c1cc(NC(=O)[C@H]2[C@H](c3cc(Cl)c(Cl)c(Cl)c3)C2(Cl)Cl)ccc1Cl` (relative stereo) [F11, trans-N-(Allyloxy)-2-chloro-5-(2,2-dichloro-3-(3,4,5-trichlorophenyl)cyclopropane-1-carboxamido)benzamide], the mortality at 50 µg/cm2 in data set [1] and in data set [2] was 50 to 100% throughout.
As to `C[S+]([O-])CCNC(=O)c1cc(NC(=O)[C@H]2[C@H](c3cc(Cl)cc(Cl)c3)C2(Cl)Cl)ccc1Cl` (relative stereo) [F74, trans-2-chloro-5-(2,2-dichloro-3-(3,5-dichlorophenyl)cyclopropane-1-carboxamido)-N-(2-(methylsulfinyl)ethyl)benzamide], the mortality at 50 µg/cm2 in data set [1] and in data set [2] was 50 to 100% throughout.
`O=C(NCc1ccccn1)c1cc(NC(=O)[C@H]2[C@H](c3cc(Cl)c(Cl)c(Cl)c3)C2(Cl)Cl)ccc1Cl` (relative stereo) [F9, trans-2-Chloro-5-(2,2-dichloro-3-(3,4,5-trichlorophenyl)cyclopropane-1-carboxamido)-N-(pyridin-2-ylmethyl)benzamide]: the mortality at 50 µg/cm2 in data set [1] and in data set [2] was 50 to 100% each time.
